Experimental data as given in PMC8342458, “GluN2A and GluN2B NMDA receptors use distinct allosteric routes” (Nature Communications, 2021).
Values joined by “and” are separate entries in the source; they are usually repeats but may differ in a detail not shown here. Equal values may be shown once. Read-outs that look alike come from different tables or passages of the source.

Assays:
[1] = molecular target: T1, wild-type (wt) GluN1/GluN2A receptors (Rattus norvegicus, UniProt P35439+Q00959); test: TEVC recordings in Xenopus oocytes, allosteric modulator sensitivity; assay type: cell-based; details: for Izn/Io 1 nM: 1 nM zinc; for Izn/Io 10 nM: 10 nM zinc; for Izn/Io 50 nM: 50 nM zinc; for Izn/Io 500 nM: 500 nM zinc; for Izn/Io 1000 nM: 1000 nM zinc
T1 construct: For full-length multimeric membrane-embedded receptors studied in cellulo, as done in the present work; expressed in transfected cells; host or cells: Xenopus laevis oocytes (nuclear cDNA injection, pcDNA3 plasmids)
Method: (§1) The pcDNA3-based expression plasmids for rat GluN1-1a (named GluN1 herein), rat GluN2A, and mouse GluN2B (also known as ε2) subunits, Pfu-based site-directed mutagenesis strategy, and sequencing procedure have been described previously[68],[69]. Incorporation of the unnatural amino acids (UAAs) AzF and BzF into NMDARs was performed using the genetic code expansion methodology as previously described[52],[53],[83]. The plasmid pSVB.Yam carrying the gene encoding the amber suppressor tRNA derived from B. stearothermophilus Tyr-tRNACUA, while the aminoacyl-tRNA synthetases (aaRS) construction for AzF and BzF derived from E. coli TyrRS[84],[85].
(§2) Recombinant NMDARs were expressed in Xenopus laevis oocytes after nuclear injection of 36 nl of a mixture of cDNAs (at 10–30 ng/μl) encoding various GluN1 and GluN2 subunits (ratio 1:1). Oocytes were prepared, injected, incubated, and voltage-clamped as described previously. For UAA incorporation, oocytes were co-injected with 36 nl of a cDNA mixture encoding for of GluN1, GluN2, Yam, and aaRS as follows, unless otherwise indicated in the text: GluN1-K178amber (120 ng/μl), GluN2A (80 ng/µl) or GluN2B (120 ng/μl), Yam (10 ng/μl), AzF-RS (5 ng/μl). After injection, oocytes were incubated at 19 °C in a Barth solution containing (in mM) 88 NaCl, 1 KCl, 0.33 Ca(NO3)2, 0.41 CaCl2, 0.82 MgSO4, 2.4 NaHCO3, 10 HEPES (pH adjusted to 7.6 with NaOH) supplemented with gentamicin ([…]) and the NMDAR glutamate binding site competitive antagonist D-APV (50 μM). AzF and BzF were added to the incubation medium at final concentrations of 1 mM and 2 mM, respectively.
(§3) For all experiments, except those on pH and spermine sensitivity, the standard external solution contained (in mM): 100 NaCl, 0.3 BaCl2, and 5 HEPES (pH adjusted to 7.3 with KOH). […] For the pH and spermine sensitivity experiments, an external solution enriched in HEPES was used to insure proper pH buffering. Unless otherwise mentioned, NMDAR-mediated currents were induced by simultaneously applications of saturating concentrations of glutamate and glycine (100 μM each). Glutamate and glycine dose-response curves (DRC) were performed in the presence of 100 µM glycine and 100 µM glutamate, respectively. Recordings were performed at a holding potential of −60 mV and at room temperature. Data were collected and analyzed using Clampex 10.5 and Clampfit 10.5 (Molecular Devices), respectively, and fitted using KaleidaGraph 4.0 (Synergy software).
(§4) EC50 and nH were fitted as free parameters. […] For proton DRC, corrections for small shifts in the reference potential of bath electrodes and analysis of the data were performed as previously described. Spermine experiments were performed and analyzed as previously described. In brief, spermine sensitivity was assessed at pH 6.5 and at a holding potential of −30 mV to maximize the spermine induced potentiation. […] EC50, a and nH were set as free parameters. MK-801 is an NMDAR open channel blocker with slow reversibility and, consequently, the rate at which MK-801 inhibits NMDAR responses depends on the level of channel activity, that is, channel open probability (Po). Based on this principle, MK-801 is classically used to estimate the level of NMDAR channel activity in macroscopic whole-cell recordings[36],[47],[56],[86],[87]. Note, however, that MK- 801 inhibition kinetics can index relative, not absolute, Po. MK-801 solutions (10 nM for GluN2A-containing receptors and 50 nM for GluN2B-containing receptors) were prepared by dilution of a stock solution (50 mM) into the agonist containing solutions. MK-801 time constants of inhibition (τon) were obtained by fitting currents with a single-exponential component to a time window corresponding to 10–90% of maximum inhibition. On-rate (kon) constants were then calculated assuming a pseudo first-order reaction scheme: kon = 1 / ([MK-801]*τon).

[2] = molecular target: T2, GluN1/GluN2A-V217C receptors (Rattus norvegicus, UniProt P35439+Q00959, V217C); test: TEVC recordings in Xenopus oocytes, zinc inhibition dose-response; assay type: cell-based
T2 construct: For full-length multimeric membrane-embedded receptors studied in cellulo, as done in the present work; expressed in transfected cells; host or cells: Xenopus laevis oocytes
Method: as §1, §2, §3, §4

[3] = molecular target: T3, GluN1-K178AzF/GluN2B receptors (UniProt P35439+Q01097, K178F); test: TEVC recordings in Xenopus oocytes, modulator sensitivity before and after UV photocrosslinking; assay type: cell-based, rat (GluN1), mouse (GluN2B); details: for Izn/Io 0.1 μM: 0.1 μM zinc; for Izn/Io 1 μM: 1 μM zinc; for Izn/Io 10 μM: 10 μM zinc
T3 construct: For full-length multimeric membrane-embedded receptors studied in cellulo, as done in the present work; expressed in transfected cells; host or cells: Xenopus laevis oocytes, co-injected with amber suppressor tRNA (Yam) and AzF-RS
Method: as §1, §2, §3, §4

[4] = molecular target: T4, GluN1-K178AzF/GluN2B receptors (UniProt P35439+Q01097); test: as above; assay type: cell-based, rat (GluN1), mouse (GluN2B); details: read-out: Zn2+ IC50
T4 construct: For full-length multimeric membrane-embedded receptors studied in cellulo, as done in the present work; expressed in transfected cells; host or cells: Xenopus laevis oocytes, co-injected with amber suppressor tRNA (Yam) and AzF-RS
Method: as §1, §2, §3, §4

[5] = molecular target: T5, GluN1-N521C-L777C/GluN2A-E516C-L780C (CC/CC) receptors (Rattus norvegicus, UniProt P35439+Q00959, E516C/L777C/L780C/N521C); test: TEVC recordings in Xenopus oocytes, zinc sensitivity; assay type: cell-based
T5 construct: For full-length multimeric membrane-embedded receptors studied in cellulo, as done in the present work; expressed in transfected cells; host or cells: Xenopus laevis oocytes
Method: as §1, §2, §3, §4

T2 sequence (Q00959 23-1464 V217C, other chains not shown): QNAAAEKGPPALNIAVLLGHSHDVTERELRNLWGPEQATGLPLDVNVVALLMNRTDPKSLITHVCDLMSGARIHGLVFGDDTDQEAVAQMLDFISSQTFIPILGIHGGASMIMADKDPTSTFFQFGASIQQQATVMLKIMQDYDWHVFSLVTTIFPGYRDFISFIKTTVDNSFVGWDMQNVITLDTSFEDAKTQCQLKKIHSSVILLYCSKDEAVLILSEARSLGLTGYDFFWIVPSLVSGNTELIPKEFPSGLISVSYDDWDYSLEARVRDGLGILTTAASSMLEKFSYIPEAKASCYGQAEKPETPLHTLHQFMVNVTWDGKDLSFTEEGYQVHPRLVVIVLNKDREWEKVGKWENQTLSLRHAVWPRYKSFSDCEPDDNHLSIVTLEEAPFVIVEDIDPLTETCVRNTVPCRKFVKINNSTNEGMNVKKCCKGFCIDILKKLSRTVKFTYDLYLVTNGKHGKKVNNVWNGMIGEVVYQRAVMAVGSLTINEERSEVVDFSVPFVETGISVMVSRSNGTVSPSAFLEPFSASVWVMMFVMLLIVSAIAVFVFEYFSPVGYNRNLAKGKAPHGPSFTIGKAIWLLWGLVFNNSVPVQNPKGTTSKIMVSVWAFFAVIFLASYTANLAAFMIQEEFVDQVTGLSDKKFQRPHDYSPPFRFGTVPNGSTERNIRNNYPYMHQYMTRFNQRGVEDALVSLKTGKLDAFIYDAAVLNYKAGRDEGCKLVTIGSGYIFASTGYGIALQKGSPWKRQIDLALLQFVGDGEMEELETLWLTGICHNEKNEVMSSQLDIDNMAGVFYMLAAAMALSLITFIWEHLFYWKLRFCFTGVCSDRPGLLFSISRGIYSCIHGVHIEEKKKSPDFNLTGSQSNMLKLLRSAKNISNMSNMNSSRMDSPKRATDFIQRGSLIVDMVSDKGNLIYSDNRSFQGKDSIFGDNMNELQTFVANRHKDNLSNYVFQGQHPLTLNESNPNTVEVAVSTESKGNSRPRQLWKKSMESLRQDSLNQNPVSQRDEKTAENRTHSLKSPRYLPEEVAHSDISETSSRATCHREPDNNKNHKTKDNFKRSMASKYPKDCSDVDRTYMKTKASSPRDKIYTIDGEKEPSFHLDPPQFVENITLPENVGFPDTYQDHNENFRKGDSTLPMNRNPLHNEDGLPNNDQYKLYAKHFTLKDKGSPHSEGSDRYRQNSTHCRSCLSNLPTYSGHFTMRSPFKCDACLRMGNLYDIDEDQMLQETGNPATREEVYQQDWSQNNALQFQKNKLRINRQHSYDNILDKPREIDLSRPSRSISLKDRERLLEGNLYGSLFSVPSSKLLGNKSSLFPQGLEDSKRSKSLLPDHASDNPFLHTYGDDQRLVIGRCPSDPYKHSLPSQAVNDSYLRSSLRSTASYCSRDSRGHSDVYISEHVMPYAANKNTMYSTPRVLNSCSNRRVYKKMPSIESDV
T1 sequence (Q00959 23-1464, other chains not shown): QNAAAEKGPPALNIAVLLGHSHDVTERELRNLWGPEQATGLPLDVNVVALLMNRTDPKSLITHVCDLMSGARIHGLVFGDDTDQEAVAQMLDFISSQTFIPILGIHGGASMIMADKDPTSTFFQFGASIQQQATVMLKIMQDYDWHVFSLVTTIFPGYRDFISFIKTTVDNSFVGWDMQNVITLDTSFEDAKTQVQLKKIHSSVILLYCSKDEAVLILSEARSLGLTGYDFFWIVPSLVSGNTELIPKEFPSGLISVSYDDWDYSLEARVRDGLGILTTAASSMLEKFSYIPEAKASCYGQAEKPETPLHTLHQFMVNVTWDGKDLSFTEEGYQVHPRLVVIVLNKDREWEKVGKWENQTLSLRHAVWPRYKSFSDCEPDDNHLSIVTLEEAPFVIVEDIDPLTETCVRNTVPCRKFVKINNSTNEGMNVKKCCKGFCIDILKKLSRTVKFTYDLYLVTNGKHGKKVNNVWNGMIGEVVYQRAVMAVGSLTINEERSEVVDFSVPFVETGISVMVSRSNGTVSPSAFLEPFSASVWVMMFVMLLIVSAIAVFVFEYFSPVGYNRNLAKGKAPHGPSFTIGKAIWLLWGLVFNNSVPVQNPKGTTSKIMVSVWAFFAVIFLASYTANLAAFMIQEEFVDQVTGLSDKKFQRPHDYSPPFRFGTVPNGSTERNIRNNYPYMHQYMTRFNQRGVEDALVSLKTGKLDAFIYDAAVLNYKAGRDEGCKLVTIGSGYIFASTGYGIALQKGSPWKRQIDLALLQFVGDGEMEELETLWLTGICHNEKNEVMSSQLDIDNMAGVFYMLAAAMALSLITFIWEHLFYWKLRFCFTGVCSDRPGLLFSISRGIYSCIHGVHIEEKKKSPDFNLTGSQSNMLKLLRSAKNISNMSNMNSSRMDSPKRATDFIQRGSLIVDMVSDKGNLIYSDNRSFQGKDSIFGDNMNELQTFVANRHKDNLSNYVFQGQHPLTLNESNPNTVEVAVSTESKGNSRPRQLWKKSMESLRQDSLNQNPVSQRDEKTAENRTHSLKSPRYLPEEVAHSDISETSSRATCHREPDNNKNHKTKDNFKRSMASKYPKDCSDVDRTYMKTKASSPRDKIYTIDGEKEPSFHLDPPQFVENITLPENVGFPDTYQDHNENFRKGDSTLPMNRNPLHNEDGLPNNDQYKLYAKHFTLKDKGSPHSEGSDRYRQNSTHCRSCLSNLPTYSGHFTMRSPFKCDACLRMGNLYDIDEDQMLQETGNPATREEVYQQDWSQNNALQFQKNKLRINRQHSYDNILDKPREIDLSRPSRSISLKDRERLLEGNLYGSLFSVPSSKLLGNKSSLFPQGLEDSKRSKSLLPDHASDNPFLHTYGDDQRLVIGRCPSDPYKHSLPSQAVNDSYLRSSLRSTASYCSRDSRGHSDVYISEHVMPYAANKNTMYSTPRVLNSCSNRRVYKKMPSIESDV
T3 sequence (Q01097 27-1482, other chains not shown): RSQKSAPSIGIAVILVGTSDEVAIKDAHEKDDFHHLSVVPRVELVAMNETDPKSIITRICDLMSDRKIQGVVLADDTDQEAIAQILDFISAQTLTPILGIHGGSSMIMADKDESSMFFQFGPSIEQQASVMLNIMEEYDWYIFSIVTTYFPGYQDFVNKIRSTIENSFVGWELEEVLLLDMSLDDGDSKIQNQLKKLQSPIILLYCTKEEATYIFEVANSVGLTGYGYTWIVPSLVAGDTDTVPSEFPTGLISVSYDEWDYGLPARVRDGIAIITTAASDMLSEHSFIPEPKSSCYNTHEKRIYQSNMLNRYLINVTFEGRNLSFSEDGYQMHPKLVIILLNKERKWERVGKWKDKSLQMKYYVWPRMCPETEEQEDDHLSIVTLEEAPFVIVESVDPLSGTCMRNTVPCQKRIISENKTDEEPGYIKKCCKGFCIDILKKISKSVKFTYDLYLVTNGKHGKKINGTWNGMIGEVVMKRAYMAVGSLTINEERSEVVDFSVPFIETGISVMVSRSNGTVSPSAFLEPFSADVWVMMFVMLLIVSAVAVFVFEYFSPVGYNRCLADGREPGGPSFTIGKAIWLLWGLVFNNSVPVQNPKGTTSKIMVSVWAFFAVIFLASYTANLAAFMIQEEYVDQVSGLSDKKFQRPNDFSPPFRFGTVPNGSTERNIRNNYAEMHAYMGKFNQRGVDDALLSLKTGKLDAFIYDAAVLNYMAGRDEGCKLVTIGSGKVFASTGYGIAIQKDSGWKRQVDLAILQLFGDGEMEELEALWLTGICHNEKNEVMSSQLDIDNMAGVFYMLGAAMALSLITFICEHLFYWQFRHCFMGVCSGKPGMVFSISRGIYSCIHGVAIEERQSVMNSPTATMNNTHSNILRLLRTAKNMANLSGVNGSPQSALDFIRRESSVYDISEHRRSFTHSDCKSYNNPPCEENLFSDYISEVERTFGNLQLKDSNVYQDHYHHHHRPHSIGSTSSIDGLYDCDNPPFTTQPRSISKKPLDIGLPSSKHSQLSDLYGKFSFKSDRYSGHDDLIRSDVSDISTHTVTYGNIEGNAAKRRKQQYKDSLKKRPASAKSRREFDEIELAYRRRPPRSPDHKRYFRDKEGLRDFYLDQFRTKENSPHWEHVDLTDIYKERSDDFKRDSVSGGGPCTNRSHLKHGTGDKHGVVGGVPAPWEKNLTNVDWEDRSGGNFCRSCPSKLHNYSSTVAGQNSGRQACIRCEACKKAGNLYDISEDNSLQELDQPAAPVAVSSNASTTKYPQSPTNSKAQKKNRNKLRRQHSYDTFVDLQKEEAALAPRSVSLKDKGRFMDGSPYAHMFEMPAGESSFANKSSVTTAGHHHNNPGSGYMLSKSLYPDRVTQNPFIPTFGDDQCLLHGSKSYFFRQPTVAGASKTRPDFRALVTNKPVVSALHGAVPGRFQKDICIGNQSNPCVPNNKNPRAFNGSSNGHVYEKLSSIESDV

Q: With `[Zn+2]` [zinc] as the compound, how does the “Zn2+ Hill slope (nH)” value [1] read?
A: Its value is 0.64 ± 0.10 and 0.70 ± 0.03 and 0.77 ± 0.05.

Q: And the “Izn/Io 1 nM” value [1]?
A: The value was 0.90 ± 0.01 and 0.90 ± 0.05 and 0.86 ± 0.08.

Q: What about the “Izn/Io 1 nM” value ([1]; +GNE (100 µM GNE-3419)) of the same compound?
A: Its value is 0.97 ± 0.02.

Q: And the “Izn/Io 10 nM” value [1]?
A: Its value is 0.68 ± 0.01 and 0.68 ± 0.04 and 0.68 ± 0.07.

Q: What about the “Izn/Io 10 nM” value ([1]; +GNE (100 µM GNE-3419)) of the same compound?
A: The value was 0.88 ± 0.05.

Q: What about the “Izn/Io 50 nM” value [1] of the same compound?
A: The value was 0.45 ± 0.02 and 0.45 ± 0.05.

Q: And the “Izn/Io 50 nM” value ([1]; +GNE (100 µM GNE-3419))?
A: Its value is 0.76 ± 0.08.

Q: What about the “Izn/Io 500 nM” value [1] of the same compound?
A: The value was 0.31 ± 0.02 and 0.33 ± 0.04.

Q: And the “Izn/Io 500 nM” value ([1]; +GNE (100 µM GNE-3419))?
A: The value was 0.65 ± 0.07.

Q: What about the “Izn/Io 1000 nM” value [1] of the same compound?
A: The value was 0.30 ± 0.06 and 0.28 ± 0.04 and 0.30 ± 0.03.

Q: What about the “Izn/Io 1000 nM” value ([1]; +GNE (100 µM GNE-3419)) of the same compound?
A: Its value is 0.58 ± 0.02.

Q: And the “Zn2+ maximal inhibition” value ([1]; fraction)?
A: Its value is 0.74 ± 0.05.

Q: And the “Zn2+ Hill slope (nH)” value ([1]; in the presence of 100 µM GNE-3419)?
A: Its value is 0.62 ± 0.17.

Q: What about the IC50 ([1]; read-out: Zn2+ IC50) of the same compound?
A: Its IC50 is 12 nM and 15.3 nM and 13 nM.

Q: And the “Zn2+ Hill slope (nH)” value [2]?
A: The value was 0.44 ± 0.08.

Q: What about the “maximal level of zinc inhibition” value [2] of the same compound?
A: The value was 40%.

Q: What about the “Izn/Io 1 nM” value ([2]; 1 nM zinc) of the same compound?
A: The value was 0.86 ± 0.03.

Q: And the “Izn/Io 10 nM” value ([2]; 10 nM zinc)?
A: Its value is 0.78 ± 0.03.

Q: And the “Izn/Io 50 nM” value ([2]; 50 nM zinc)?
A: Its value is 0.70 ± 0.03.

Q: And the “Izn/Io 500 nM” value ([2]; 500 nM zinc)?
A: The value was 0.65 ± 0.03.

Q: And the “Izn/Io 1000 nM” value ([2]; 1000 nM zinc)?
A: The value was 0.64 ± 0.04.

Q: And the IC50 ([2]; read-out: Zn2+ IC50)?
A: Its IC50 is 4.64 ± 1.78 nM.

Q: And the “Izn/Io 0.1 μM” value ([3]; +UV)?
A: Its value is 0.97 ± 0.02.

Q: What about the “Izn/Io 0.1 μM” value ([3]; -UV) of the same compound?
A: The value was 0.73 ± 0.09.

Q: And the “Izn/Io 1 μM” value ([3]; +UV)?
A: Its value is 0.86 ± 0.03.

Q: What about the “Izn/Io 1 μM” value ([3]; -UV) of the same compound?
A: The value was 0.33 ± 0.05.

Q: What about the “Izn/Io 10 μM” value ([3]; +UV) of the same compound?
A: The value was 0.45 ± 0.08.

Q: And the “Izn/Io 10 μM” value ([3]; -UV)?
A: The value was 0.04 ± 0.01.

Q: What about the “Zn2+ Hill slope (nH)” value ([3]; after UV) of the same compound?
A: The value was 0.91 ± 0.02.

Q: And the “Zn2+ Hill slope (nH)” value ([3]; before UV)?
A: The value was 1.02 ± 0.02.

Q: And the “increase in zinc IC50 following UV treatment” value ([3]; post-UV vs pre-UV)?
A: Its value is ~ 15 fold.

Q: And the IC50 ([4]; after UV)?
A: Its IC50 is 7.96 ± 0.16 µM.

Q: What about the IC50 ([4]; before UV) of the same compound?
A: The IC50 was 0.54 ± 0.01 µM.

Q: And the “Zn2+ Hill slope (nH)” value [5]?
A: The value was 0.40 ± 0.11.

Q: And the “Zn2+ maximal inhibition” value [5]?
A: Its value is 0.37 ± 0.04.

Q: What about the “Izn/Io 1 nM” value ([5]; 1 nM zinc) of the same compound?
A: Its value is 0.86 ± 0.01.

Q: And the “Izn/Io 5 nM” value ([5]; 5 nM zinc)?
A: The value was 0.81 ± 0.02.

Q: And the “Izn/Io 50 nM” value ([5]; 50 nM zinc)?
A: The value was 0.72 ± 0.03.

Q: What about the “Izn/Io 500 nM” value ([5]; 500 nM zinc) of the same compound?
A: The value was 0.66 ± 0.04.

Q: And the “Izn/Io 1000 nM” value ([5]; 1000 nM zinc)?
A: The value was 0.68 ± 0.01.

Q: What about the IC50 ([5]; read-out: Zn2+ IC50) of the same compound?
A: The IC50 was 3.44 ± 2.03 nM.
